Experimental data from the NIST ThermoML archive (doi:10.1021/je200508x).
± gives the expanded uncertainty stated by the source.

Assay: molar heat capacity at constant pressure
Conditions: 101.33 kPa, Crystal, Vacuum adiabatic calorimetry

Compound: C=C(C)C(=O)[O][Sb]([O]C(=O)C(=C)C)([c]1ccccc1)([c]1ccccc1)[c]1ccccc1 [triphenyl-.lambda.5-stibanediyl bis(2-methylacrylate)]
- molar heat capacity at constant pressure (130 K): 297.4 ± 0.5 J/K/mol
- molar heat capacity at constant pressure (130.59 K): 298.4 ± 1.2 J/K/mol
- molar heat capacity at constant pressure (132.7 K): 302.2 ± 1.3 J/K/mol
- molar heat capacity at constant pressure (135.08 K): 306.4 ± 1.3 J/K/mol
- molar heat capacity at constant pressure (139.6 K): 313.7 ± 1.3 J/K/mol
- molar heat capacity at constant pressure (140 K): 314.6 ± 0.5 J/K/mol
- molar heat capacity at constant pressure (141.3 K): 316.8 ± 1.3 J/K/mol
- molar heat capacity at constant pressure (143.4 K): 321 ± 1.3 J/K/mol
- molar heat capacity at constant pressure (145.22 K): 324.6 ± 1.4 J/K/mol
- molar heat capacity at constant pressure (147.6 K): 328.9 ± 1.4 J/K/mol
- molar heat capacity at constant pressure (149.99 K): 333.6 ± 1.4 J/K/mol
- molar heat capacity at constant pressure (150 K): 333.6 ± 0.5 J/K/mol
- molar heat capacity at constant pressure (152.36 K): 347.2 ± 1.4 J/K/mol
- molar heat capacity at constant pressure (154.75 K): 352.6 ± 1.5 J/K/mol
- molar heat capacity at constant pressure (157.14 K): 362.4 ± 1.5 J/K/mol
- molar heat capacity at constant pressure (159.53 K): 372.2 ± 1.5 J/K/mol
- molar heat capacity at constant pressure (160 K): 372.6 ± 0.6 J/K/mol
- molar heat capacity at constant pressure (161.92 K): 369.5 ± 1.5 J/K/mol
- molar heat capacity at constant pressure (164.34 K): 355.3 ± 1.5 J/K/mol
- molar heat capacity at constant pressure (166.76 K): 356.4 ± 1.5 J/K/mol
- molar heat capacity at constant pressure (169.15 K): 360 ± 1.5 J/K/mol
- molar heat capacity at constant pressure (170 K): 361.2 ± 0.6 J/K/mol
- molar heat capacity at constant pressure (171.6 K): 363.4 ± 1.5 J/K/mol
- molar heat capacity at constant pressure (173.9 K): 366.7 ± 1.5 J/K/mol
- molar heat capacity at constant pressure (175.85 K): 369.5 ± 1.5 J/K/mol
- molar heat capacity at constant pressure (178.25 K): 372.5 ± 1.5 J/K/mol
- molar heat capacity at constant pressure (180 K): 375.2 ± 0.6 J/K/mol
- molar heat capacity at constant pressure (180.65 K): 376.2 ± 1.6 J/K/mol
- molar heat capacity at constant pressure (183.05 K): 379.6 ± 1.6 J/K/mol
- molar heat capacity at constant pressure (184.24 K): 380.9 ± 1.6 J/K/mol
- molar heat capacity at constant pressure (187.35 K): 385.8 ± 1.6 J/K/mol
- molar heat capacity at constant pressure (190 K): 389.6 ± 0.6 J/K/mol
- molar heat capacity at constant pressure (190.9 K): 391.1 ± 1.6 J/K/mol
- molar heat capacity at constant pressure (194.06 K): 395.5 ± 1.6 J/K/mol
- molar heat capacity at constant pressure (197.17 K): 400.2 ± 1.7 J/K/mol
- molar heat capacity at constant pressure (200 K): 404.7 ± 0.6 J/K/mol
- molar heat capacity at constant pressure (200.73 K): 406 ± 1.7 J/K/mol
- molar heat capacity at constant pressure (204.87 K): 412.6 ± 1.7 J/K/mol
- molar heat capacity at constant pressure (209.58 K): 420 ± 1.7 J/K/mol
- molar heat capacity at constant pressure (210 K): 420.5 ± 0.6 J/K/mol
- molar heat capacity at constant pressure (214.29 K): 427 ± 1.8 J/K/mol
- molar heat capacity at constant pressure (218.98 K): 434.2 ± 1.8 J/K/mol
- molar heat capacity at constant pressure (220 K): 436.3 ± 0.6 J/K/mol
- molar heat capacity at constant pressure (223.67 K): 442.1 ± 1.8 J/K/mol
- molar heat capacity at constant pressure (228.35 K): 449.1 ± 1.9 J/K/mol
- molar heat capacity at constant pressure (230 K): 451.7 ± 0.7 J/K/mol
- molar heat capacity at constant pressure (232.58 K): 456.1 ± 1.9 J/K/mol
- molar heat capacity at constant pressure (236.01 K): 461 ± 1.9 J/K/mol
- molar heat capacity at constant pressure (240 K): 466.6 ± 0.7 J/K/mol
- molar heat capacity at constant pressure (240.06 K): 466.4 ± 1.9 J/K/mol
- molar heat capacity at constant pressure (244.71 K): 473.3 ± 2 J/K/mol
- molar heat capacity at constant pressure (249.36 K): 480 ± 2 J/K/mol
- molar heat capacity at constant pressure (250 K): 481.2 ± 0.7 J/K/mol
- molar heat capacity at constant pressure (252.66 K): 484.9 ± 2 J/K/mol
- molar heat capacity at constant pressure (256.66 K): 491.7 ± 2 J/K/mol
- molar heat capacity at constant pressure (260 K): 496.3 ± 0.7 J/K/mol
- molar heat capacity at constant pressure (261.29 K): 497.9 ± 2.1 J/K/mol
- molar heat capacity at constant pressure (265.91 K): 505.5 ± 2.1 J/K/mol
- molar heat capacity at constant pressure (270 K): 511.1 ± 0.7 J/K/mol
- molar heat capacity at constant pressure (270.5 K): 511.7 ± 2.1 J/K/mol
- molar heat capacity at constant pressure (275.08 K): 518.7 ± 2.1 J/K/mol
- molar heat capacity at constant pressure (277.79 K): 522.4 ± 2.2 J/K/mol
- molar heat capacity at constant pressure (280 K): 525.9 ± 0.7 J/K/mol
- molar heat capacity at constant pressure (281.19 K): 527.2 ± 2.2 J/K/mol
- molar heat capacity at constant pressure (284.56 K): 532.8 ± 2.2 J/K/mol
- molar heat capacity at constant pressure (287.93 K): 538.8 ± 2.2 J/K/mol
- molar heat capacity at constant pressure (290 K): 541.9 ± 0.7 J/K/mol
- molar heat capacity at constant pressure (291.28 K): 544 ± 2.2 J/K/mol
- molar heat capacity at constant pressure (294.6 K): 550.2 ± 2.3 J/K/mol
- molar heat capacity at constant pressure (297.91 K): 555.7 ± 2.3 J/K/mol
- molar heat capacity at constant pressure (298.15 K): 555.9 ± 0.8 J/K/mol
- molar heat capacity at constant pressure (300 K): 559.1 ± 0.8 J/K/mol
- molar heat capacity at constant pressure (301.2 K): 561.8 ± 2.3 J/K/mol
- molar heat capacity at constant pressure (304.48 K): 566.7 ± 2.3 J/K/mol
- molar heat capacity at constant pressure (307.74 K): 572.1 ± 2.4 J/K/mol
- molar heat capacity at constant pressure (310 K): 576.3 ± 0.8 J/K/mol
- molar heat capacity at constant pressure (310.99 K): 577.4 ± 2.4 J/K/mol
- molar heat capacity at constant pressure (314.22 K): 583.3 ± 2.4 J/K/mol
- molar heat capacity at constant pressure (317.43 K): 588.2 ± 2.4 J/K/mol
- molar heat capacity at constant pressure (320 K): 592 ± 0.8 J/K/mol
- molar heat capacity at constant pressure (320.63 K): 592.8 ± 2.4 J/K/mol
- molar heat capacity at constant pressure (323.81 K): 597.8 ± 2.5 J/K/mol
- molar heat capacity at constant pressure (327.25 K): 602.8 ± 2.5 J/K/mol
- molar heat capacity at constant pressure (330 K): 607 ± 1 J/K/mol
- molar heat capacity at constant pressure (330.43 K): 607 ± 2.5 J/K/mol
- molar heat capacity at constant pressure (332.9 K): 611.4 ± 2.5 J/K/mol
- molar heat capacity at constant pressure (334.78 K): 614.7 ± 2.5 J/K/mol
- molar heat capacity at constant pressure (340 K): 621 ± 1 J/K/mol
- molar heat capacity at constant pressure (350 K): 635 ± 1 J/K/mol
- molar heat capacity at constant pressure (360 K): 649 ± 1 J/K/mol
- molar heat capacity at constant pressure (370 K): 664 ± 1 J/K/mol
- molar heat capacity at constant pressure (380 K): 679 ± 1 J/K/mol
- molar heat capacity at constant pressure (390 K): 694 ± 1 J/K/mol
- molar heat capacity at constant pressure (400 K): 709 ± 1 J/K/mol
